Measurements taken from patent US20230108049A1, “ORAL FAST-DISPERSING DOSAGE FORM OF RIMEGEPANT” (BIOHAVEN PHARMACEUTICAL HOLDING COMPANY LTD., priority 2020, published 2023).

What was measured:
[1] = target: MATE1 (Homo sapiens, UniProt Q96FL8); experiment: In vitro transporter inhibition; type: in vitro ADME
Description: (§1) Rimegepant is an inhibitor of OATP1B3, OCT2, and MATE1. No clinical drug interactions are expected for NURTEC ODT with these transporters at clinically relevant concentrations.

[2] = target: OAT1 (Homo sapiens, UniProt Q4U2R8); experiment: In vitro transporter inhibition; type: in vitro ADME; conditions: at clinically relevant concentrations
Description: as §1

[3] = target: OCT2 (Homo sapiens, UniProt O15244); experiment: In vitro transporter inhibition; type: in vitro ADME
Description: as §1

[4] = target: OAT3 (Homo sapiens, UniProt Q8TCC7); experiment: In vitro transporter inhibition; type: in vitro ADME
Description: as §1

[5] = target: T1, OATP1B3 (Homo sapiens, UniProt Q9NPD5); experiment: In vitro transporter inhibition; type: in vitro ADME
Description: as §1

[6] = Excretion after oral [14C]-rimegepant; type: in vivo, human; conditions: oral [14C]-rimegepant, healthy male subjects
Description: Following oral administration of [^14C]-rimegepant to healthy male subjects, 78% of the total radioactivity was recovered in feces and 24% in urine. Unchanged rimegepant is the major single component in excreted feces (42%) and urine (51%).

[7] = target: OATP1B1 (Homo sapiens, UniProt Q9Y6L6); experiment: In vitro transporter substrate study; type: in vitro ADME
Description: (§2) Considering its low renal clearance, rimegepant was not evaluated as a substrate of the OAT1, OAT3, OCT2, MATE1, or MATE2-K.

[8] = target: T1, OATP1B3; experiment: In vitro transporter substrate study; type: in vitro ADME
Description: as §2

[9] = system: male and female rats; experiment: Fertility study, oral, male and female rats (0, 30, 60, or 150 mg/kg/day); type: in vivo, rat
[10] = system: CYP2C9; experiment: Pharmacogenomics: pharmacokinetics by CYP2C9 genotype; type: in vivo, human; conditions: CYP2C9 intermediate metabolizers (n=43) compared to normal metabolizers (N=72)
Description: CYP2C9 activity is reduced in individuals with genetic variants such as the CYP2C9*2 and CYP2C9*3 alleles. Rimegepant Cmax and AUC0-inf were similar in CYP2C9 intermediate metabolizers (i.e., *1/*2, *2/*2, *1/*3, n=43) as compared to normal metabolizers (i.e., *1/*1, N=72). Adequate PK data are not available from CYP2C9 poor metabolizers (i.e., *2/*3).

[11] = target: T2, CYP3A4 (Homo sapiens, UniProt P08684); experiment: Expected interactions with moderate or weak CYP3A4 inhibitors and inducers; type: in vivo; design: endogenous in cells; host or cells: in vivo, endogenous enzyme of the study subjects
Method: The concomitant administration of rimegepant with a moderate inhibitor of CYP3A4 may increase rimegepant exposures (AUC) by less than 2-fold [see Drug Interactions].
(§3) No dedicated drug interaction study was conducted to assess the effect of concomitant administration of a moderate or weak inducer of CYP3A4 on the pharmacokinetics of rimegepant.

[12] = system: rats; experiment: Carcinogenesis study, oral, 91-100 weeks, rats; type: in vivo, rat
[13] = target: MATE2-K (Homo sapiens, UniProt Q86VL8); experiment: In vitro transporter inhibition; type: in vitro ADME; conditions: at clinically relevant concentrations
[14] = system: bacterial reverse-mutation; experiment: Bacterial reverse-mutation assay (in vitro); type: cell-based
Description: Rimegepant was negative in in vitro (bacterial reverse-mutation, chromosomal aberration in Chinese hamster ovary cells) and in vivo (rat micronucleus) assays.

[15] = system: CYP2B6; experiment: In vitro enzyme induction; type: in vitro ADME; conditions: at clinically relevant concentrations
Description: (§4) Rimegepant is a substrate of CYP3A4 and CYP2C9 [see In Vivo Studies].

[16] = system: CYP3A4; experiment: In vitro enzyme induction; type: in vitro ADME; conditions: at clinically relevant concentrations
Description: as §4

[17] = system: CYP1A2; experiment: In vitro enzyme induction; type: in vitro ADME; conditions: at clinically relevant concentrations
Description: as §4

[18] = system: rats; experiment: Second fertility study, rats, lower doses (0, 5, 15, or 25 mg/kg/day); type: in vivo, rat
[19] = system: pregnant rats; experiment: Embryofetal development study, oral administration during organogenesis, rats; type: in vivo, rat
Method: Plasma exposures (AUC) at the no-effect dose (60 mg/kg/day) for adverse effects on embryofetal development were approximately 45 times that in humans at the maximum recommended human dose (MRHD) of 75 mg/day.

[20] = target: T2, CYP3A4; experiment: Dedicated drug interaction study with rifampin (strong CYP3A4 inducer); type: in vivo; design: endogenous in cells; host or cells: in vivo, endogenous enzyme of the study subjects; conditions: 75 mg single dose with rifampin at steady state
Method: as §3

[21] = target: P-gp (Homo sapiens, UniProt P08183); experiment: In vitro transporter substrate study; type: in vitro ADME
Method: (§5) Rimegepant is a substrate of P-gp and BCRP. Concomitant administration of inhibitors of P-gp or BCRP may increase the exposure of rimegepant [see Drug Interactions]. No dedicated drug interaction study was conducted to assess their effects on the pharmacokinetics of rimegepant.

[22] = target: BCRP (Homo sapiens, UniProt Q9UNQ0); experiment: In vitro transporter substrate study; type: in vitro ADME
Method: as §5

T2 sequence (P08684 whole entry): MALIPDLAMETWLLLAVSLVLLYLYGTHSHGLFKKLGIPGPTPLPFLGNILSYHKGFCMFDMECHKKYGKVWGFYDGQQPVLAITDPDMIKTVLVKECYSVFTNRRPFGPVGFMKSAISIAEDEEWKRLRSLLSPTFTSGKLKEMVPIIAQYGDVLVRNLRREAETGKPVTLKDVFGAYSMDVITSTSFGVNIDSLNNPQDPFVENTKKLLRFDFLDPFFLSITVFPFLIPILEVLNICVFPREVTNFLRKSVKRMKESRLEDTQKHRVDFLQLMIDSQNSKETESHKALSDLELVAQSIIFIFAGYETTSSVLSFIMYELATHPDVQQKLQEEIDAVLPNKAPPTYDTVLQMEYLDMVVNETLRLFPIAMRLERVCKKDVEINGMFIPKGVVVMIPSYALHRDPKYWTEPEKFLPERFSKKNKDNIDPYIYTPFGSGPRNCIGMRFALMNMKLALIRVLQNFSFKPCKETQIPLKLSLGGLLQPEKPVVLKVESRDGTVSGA
T1 sequence (Q9NPD5 whole entry): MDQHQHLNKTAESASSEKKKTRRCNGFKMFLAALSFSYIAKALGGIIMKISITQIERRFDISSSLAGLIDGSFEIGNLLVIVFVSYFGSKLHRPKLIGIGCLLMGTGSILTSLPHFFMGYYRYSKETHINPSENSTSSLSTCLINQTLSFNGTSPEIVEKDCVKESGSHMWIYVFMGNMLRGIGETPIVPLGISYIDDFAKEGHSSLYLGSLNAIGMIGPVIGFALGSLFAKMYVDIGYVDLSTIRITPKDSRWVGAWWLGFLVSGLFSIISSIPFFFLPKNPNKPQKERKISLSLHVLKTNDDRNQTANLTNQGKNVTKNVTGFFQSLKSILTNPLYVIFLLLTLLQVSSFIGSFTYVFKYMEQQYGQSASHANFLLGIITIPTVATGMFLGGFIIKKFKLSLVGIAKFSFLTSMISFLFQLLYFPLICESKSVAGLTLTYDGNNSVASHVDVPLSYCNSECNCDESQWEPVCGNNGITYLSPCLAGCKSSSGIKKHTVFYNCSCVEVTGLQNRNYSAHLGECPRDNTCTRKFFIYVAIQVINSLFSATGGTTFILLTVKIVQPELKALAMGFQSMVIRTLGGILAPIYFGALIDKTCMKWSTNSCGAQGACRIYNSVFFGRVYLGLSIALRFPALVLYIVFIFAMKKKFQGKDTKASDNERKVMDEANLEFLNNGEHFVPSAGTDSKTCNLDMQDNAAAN
MATE1, sequence (Q96FL8 whole entry): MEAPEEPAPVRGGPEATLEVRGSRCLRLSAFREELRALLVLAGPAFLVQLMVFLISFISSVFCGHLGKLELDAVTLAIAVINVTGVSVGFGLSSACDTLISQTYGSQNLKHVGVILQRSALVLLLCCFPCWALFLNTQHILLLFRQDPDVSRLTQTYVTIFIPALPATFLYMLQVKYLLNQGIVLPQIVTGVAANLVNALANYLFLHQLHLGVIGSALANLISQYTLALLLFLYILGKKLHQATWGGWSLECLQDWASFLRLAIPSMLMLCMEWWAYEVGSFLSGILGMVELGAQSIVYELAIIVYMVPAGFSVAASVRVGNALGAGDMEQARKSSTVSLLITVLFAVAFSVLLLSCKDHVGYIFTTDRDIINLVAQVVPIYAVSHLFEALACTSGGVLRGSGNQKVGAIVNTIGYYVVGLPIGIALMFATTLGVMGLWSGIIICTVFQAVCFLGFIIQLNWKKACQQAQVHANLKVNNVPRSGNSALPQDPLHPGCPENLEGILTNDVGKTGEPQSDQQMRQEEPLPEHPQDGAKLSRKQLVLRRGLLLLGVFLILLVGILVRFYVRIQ
OCT2, sequence (O15244 whole entry): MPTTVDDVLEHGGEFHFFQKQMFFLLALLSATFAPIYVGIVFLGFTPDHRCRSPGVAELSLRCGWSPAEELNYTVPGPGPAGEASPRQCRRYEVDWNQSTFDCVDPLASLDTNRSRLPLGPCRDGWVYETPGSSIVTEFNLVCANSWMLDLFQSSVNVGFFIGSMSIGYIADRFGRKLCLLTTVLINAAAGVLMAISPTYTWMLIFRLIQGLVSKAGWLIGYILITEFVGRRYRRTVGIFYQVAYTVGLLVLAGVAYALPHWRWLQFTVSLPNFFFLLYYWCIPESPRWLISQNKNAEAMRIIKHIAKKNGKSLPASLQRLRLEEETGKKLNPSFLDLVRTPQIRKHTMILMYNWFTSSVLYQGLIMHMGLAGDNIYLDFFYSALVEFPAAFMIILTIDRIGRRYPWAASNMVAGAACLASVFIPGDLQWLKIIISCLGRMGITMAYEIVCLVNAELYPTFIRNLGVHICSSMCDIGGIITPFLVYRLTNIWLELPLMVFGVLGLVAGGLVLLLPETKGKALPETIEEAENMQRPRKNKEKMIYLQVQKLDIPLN
OAT1, sequence (Q4U2R8 whole entry): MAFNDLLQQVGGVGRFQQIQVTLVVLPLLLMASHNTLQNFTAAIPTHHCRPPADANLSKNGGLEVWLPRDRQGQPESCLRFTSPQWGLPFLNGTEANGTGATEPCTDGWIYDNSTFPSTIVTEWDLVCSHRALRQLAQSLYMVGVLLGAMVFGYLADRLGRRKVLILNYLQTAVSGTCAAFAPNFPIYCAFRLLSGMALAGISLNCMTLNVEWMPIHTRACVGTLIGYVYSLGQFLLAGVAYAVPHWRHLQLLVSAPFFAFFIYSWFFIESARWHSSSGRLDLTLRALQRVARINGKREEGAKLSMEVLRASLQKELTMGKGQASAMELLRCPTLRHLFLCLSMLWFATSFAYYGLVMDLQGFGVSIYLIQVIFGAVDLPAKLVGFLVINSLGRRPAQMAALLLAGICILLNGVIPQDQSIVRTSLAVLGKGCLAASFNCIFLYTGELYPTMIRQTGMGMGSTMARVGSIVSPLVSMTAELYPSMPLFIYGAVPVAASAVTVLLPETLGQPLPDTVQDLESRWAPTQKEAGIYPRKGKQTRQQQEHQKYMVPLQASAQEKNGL
MATE2-K, sequence (Q86VL8 1-566 isoform Q86VL8-3): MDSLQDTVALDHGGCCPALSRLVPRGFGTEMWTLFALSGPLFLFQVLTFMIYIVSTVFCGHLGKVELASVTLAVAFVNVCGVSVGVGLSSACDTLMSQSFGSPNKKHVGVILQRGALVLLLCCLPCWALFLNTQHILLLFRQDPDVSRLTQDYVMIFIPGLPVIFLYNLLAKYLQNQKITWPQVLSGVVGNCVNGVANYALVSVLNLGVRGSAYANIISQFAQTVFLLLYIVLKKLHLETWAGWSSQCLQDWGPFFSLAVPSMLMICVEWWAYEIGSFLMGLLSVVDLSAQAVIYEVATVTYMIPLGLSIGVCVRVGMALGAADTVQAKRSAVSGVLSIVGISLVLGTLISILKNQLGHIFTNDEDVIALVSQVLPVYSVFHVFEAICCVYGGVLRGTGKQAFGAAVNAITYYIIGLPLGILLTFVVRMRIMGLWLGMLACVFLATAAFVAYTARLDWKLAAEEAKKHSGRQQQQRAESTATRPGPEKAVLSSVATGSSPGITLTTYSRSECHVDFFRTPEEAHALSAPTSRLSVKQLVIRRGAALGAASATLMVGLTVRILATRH
BCRP, sequence (Q9UNQ0 whole entry): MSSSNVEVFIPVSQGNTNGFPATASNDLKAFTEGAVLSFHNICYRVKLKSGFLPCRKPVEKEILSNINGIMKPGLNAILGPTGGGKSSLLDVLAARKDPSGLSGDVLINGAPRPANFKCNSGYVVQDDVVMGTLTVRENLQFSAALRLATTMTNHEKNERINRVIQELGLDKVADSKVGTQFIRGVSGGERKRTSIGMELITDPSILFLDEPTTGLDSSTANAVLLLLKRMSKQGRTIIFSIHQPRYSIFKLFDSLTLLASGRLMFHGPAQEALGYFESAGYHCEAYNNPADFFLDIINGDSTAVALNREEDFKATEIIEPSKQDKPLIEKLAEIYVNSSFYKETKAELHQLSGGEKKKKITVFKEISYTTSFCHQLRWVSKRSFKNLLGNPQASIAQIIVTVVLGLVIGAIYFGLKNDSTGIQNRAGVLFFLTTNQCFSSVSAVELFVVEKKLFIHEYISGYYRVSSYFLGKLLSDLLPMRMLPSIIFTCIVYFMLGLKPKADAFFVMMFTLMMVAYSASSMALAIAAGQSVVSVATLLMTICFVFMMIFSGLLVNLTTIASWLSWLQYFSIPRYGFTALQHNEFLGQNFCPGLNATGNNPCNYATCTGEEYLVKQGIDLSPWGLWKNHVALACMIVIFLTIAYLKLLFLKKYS
OATP1B1, sequence (Q9Y6L6 whole entry): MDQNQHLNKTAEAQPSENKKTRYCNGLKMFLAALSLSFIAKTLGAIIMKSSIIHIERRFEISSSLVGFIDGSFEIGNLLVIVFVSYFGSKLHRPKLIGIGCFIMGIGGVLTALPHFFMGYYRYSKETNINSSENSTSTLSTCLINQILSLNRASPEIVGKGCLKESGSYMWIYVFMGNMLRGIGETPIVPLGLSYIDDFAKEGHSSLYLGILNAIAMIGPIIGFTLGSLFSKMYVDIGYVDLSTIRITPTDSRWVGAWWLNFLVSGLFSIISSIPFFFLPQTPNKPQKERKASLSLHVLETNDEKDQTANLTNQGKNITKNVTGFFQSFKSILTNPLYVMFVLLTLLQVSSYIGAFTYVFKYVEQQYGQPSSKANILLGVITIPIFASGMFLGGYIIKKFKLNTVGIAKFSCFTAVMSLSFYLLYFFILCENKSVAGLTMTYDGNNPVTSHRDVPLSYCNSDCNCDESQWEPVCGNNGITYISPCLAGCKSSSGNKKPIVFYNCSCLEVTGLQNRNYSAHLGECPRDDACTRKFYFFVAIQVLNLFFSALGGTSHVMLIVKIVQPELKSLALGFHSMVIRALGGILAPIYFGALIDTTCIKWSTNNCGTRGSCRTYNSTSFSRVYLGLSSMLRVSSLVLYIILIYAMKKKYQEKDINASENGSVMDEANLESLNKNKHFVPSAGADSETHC

N[C@@H]1c2cccnc2[C@H](OC(=O)N2CCC(n3c(=O)[nH]c4ncccc43)CC2)CC[C@H]1c1cccc(F)c1F [rimegepant, (5S,6S,9R)-5-amino-6-(2,3-difluorophenyl)-6,7,8,9-tetrahydro-5H-cyclohepta[b]pyridin-9-yl 4-(2-oxo-2,3-dihydro-1H-imidazo[4,5-b]pyridin-1-yl)-1-piperidinecarboxylate]
inhibition of MATE1 [1]: inhibitor
inhibition of OAT1 [2]: not an inhibitor
inhibition of OCT2 [3]: inhibitor
inhibition of OAT3 [4]: weak inhibitor
inhibition of OATP1B3 [5]: inhibitor
unchanged rimegepant in excreted feces [6]: 42%
unchanged rimegepant in excreted urine [6]: 51%
substrate of OATP1B1 [7]: not a substrate
substrate of OATP1B3 [8]: not a substrate
fertility ([9]; highest dose tested (150 mg/kg/day)): reduced fertility at the highest dose tested
uterine histopathology ([9]; oral 30, 60, or 150 mg/kg/day, prior to and during mating, females to GD 7): uterine atrophy at all doses
Cmax and AUC0-inf [10]: similar
increase of rimegepant exposures (AUC) ([11]; with a moderate inhibitor of CYP3A4, stated as 'may increase'): less than 2 fold
impact on rimegepant exposures ([11]; with a weak inhibitor of CYP3A4, no dedicated study conducted): not expected to have a clinically significant impact
effect on rimegepant exposure ([11]; with moderate inducers of CYP3A4, no dedicated study conducted): significant reduction in rimegepant exposure
plasma exposure (AUC) relative to humans at the MRHD of 75 mg/day ([12]; highest dose tested (45 mg/kg/day)): approximately 30 times
drug-induced tumors ([12]; oral 0, 5, 20, or 45 mg/kg/day for 91-100 weeks): no evidence of drug-induced tumors
inhibition of MATE2-K [13]: not an inhibitor
mutagenesis, bacterial reverse-mutation [14]: negative
induction of CYP2B6 [15]: not an inducer
induction of CYP3A4 [16]: not an inducer
induction of CYP1A2 [17]: not an inducer
effects on fertility, uterine histopathology, early embryonic development ([18]; 0, 5, 15, or 25 mg/kg/day): no adverse effects on fertility, uterine histopathology, or early embryonic development
plasma drug exposures (AUC) relative to humans at the MRHD ([18]; at the no-effect dose (25 mg/kg/day)): approximately 15 times
no-effect dose for impairment of fertility and early embryonic development ([18]; rats): 25 mg/kg/day
plasma exposure (AUC) relative to humans at the MRHD of 75 mg/day ([19]; at the no-effect dose (60 mg/kg/day)): approximately 45 times
effects on embryofetal development ([19]; highest dose tested (300 mg/kg/day), oral, associated with maternal toxicity): decreased fetal body weight and an increased incidence of fetal variations
no-effect dose for adverse effects on embryofetal development ([19]; oral, pregnant rats): 60 mg/kg/day
decrease of rimegepant AUC [20]: 80%
decrease of rimegepant Cmax [20]: 64%
substrate of P-gp [21]: substrate
substrate of BCRP [22]: substrate
